In the NIST ThermoML archive (doi:10.1016/j.tca.2016.12.010):
Numbers after ± are expanded uncertainties.

Experiments:
[1] = refractive index (Na D-line) (dimensionless); details: 94.9 kPa, Liquid, (Schmidt +Haensch) refractometer (Model DSR lambda)
[2] = Liquid; for mass density: 94.9 kPa, Vibrating tube method; for vapor or sublimation pressure: Ebulliometric method (Recirculating still)
[3] = refractive index (Na D-line) (dimensionless); xn = mol fraction of the nth substance listed; details: 94.9 kPa, Liquid, (Schmidt +Haensch) refractometer (Model DSR lambda), x2 = 0
[4] = xn = mol fraction of the nth substance listed; details: 94.9 kPa, Liquid, Vibrating tube method, x2 = 0

CCCCCCCCCCO [decan-1-ol]
Details | mass density, [2] [kg/m3] | refractive index, [1] | vapor or sublimation pressure, [2] [kPa]
293.15 K | 830.01 ± 4 | 1.43711 ± 0.0024 | –
303.15 K | 823.54 ± 4 | 1.43332 ± 0.0024 | –
313.15 K | 816.13 ± 4 | 1.42949 ± 0.0024 | –
323.15 K | 808.84 ± 4 | 1.42564 ± 0.0024 | –
333.15 K | 801.43 ± 4 | 1.42189 ± 0.0024 | –
436.56 K | – | – | 13.32 ± 1
469.52 K | – | – | 39.99 ± 1
487.85 K | – | – | 66.66 ± 1
501.05 K | – | – | 94.9 ± 1

CCCCCCCCCCO [decan-1-ol] + C1COCCN1
Details | mass density, 293.15 K [kg/m3] | mass density, 303.15 K [kg/m3] | mass density, 313.15 K [kg/m3] | mass density, 323.15 K [kg/m3] | mass density, 333.15 K [kg/m3] | refractive index, 293.15 K | refractive index, 303.15 K | refractive index, 313.15 K | refractive index, 323.15 K | refractive index, 333.15 K
[3] | – | – | – | – | – | 1.43711 ± 0.0024 | 1.43332 ± 0.0024 | 1.42949 ± 0.0024 | 1.42564 ± 0.0024 | 1.42189 ± 0.0024
[4] | 830.01 ± 4 | 823.54 ± 4 | 816.13 ± 4 | 808.84 ± 4 | 801.43 ± 4 | – | – | – | – | –

CCCCCCCCO [octan-1-ol]
Details | mass density, [2] [kg/m3] | refractive index, [1]
293.15 K | 825.57 ± 4 | 1.4295 ± 0.0024
298.15 K | 821.9 ± 4 | 1.42748 ± 0.0024
303.15 K | 818.08 ± 4 | 1.42561 ± 0.0024
308.15 K | 814.31 ± 4 | 1.42369 ± 0.0024
313.15 K | 811.09 ± 4 | 1.42169 ± 0.0024
318.15 K | 807.7 ± 4 | 1.41973 ± 0.0024
323.15 K | 804.05 ± 4 | 1.41783 ± 0.0024
333.15 K | 796.88 ± 4 | 1.41407 ± 0.0024

C1COCCN1 [tetrahydro-1,4-oxazine]
Details | mass density, [2] [kg/m3] | refractive index, [1] | vapor or sublimation pressure, [2] [kPa]
293.15 K | 999.54 ± 4 | 1.45453 ± 0.0024 | –
303.15 K | 989.89 ± 4 | 1.45031 ± 0.0024 | –
313.15 K | 979.82 ± 4 | 1.44574 ± 0.0024 | –
323.15 K | 969.78 ± 4 | 1.44113 ± 0.0024 | –
333.15 K | 959.74 ± 4 | 1.43562 ± 0.0024 | –
343.91 K | – | – | 13.32 ± 1
372.25 K | – | – | 39.99 ± 1
387.57 K | – | – | 66.66 ± 1
398.92 K | – | – | 94.9 ± 1

Cc1ccccc1 [toluene]
Details | mass density, [2] [kg/m3] | refractive index, [1]
293.15 K | 866.68 ± 4 | 1.49666 ± 0.0024
298.15 K | 861.74 ± 4 | 1.49386 ± 0.0024
303.15 K | 857.39 ± 4 | 1.49193 ± 0.0024
308.15 K | 851.69 ± 4 | 1.48821 ± 0.0024
313.15 K | 847.82 ± 4 | 1.48536 ± 0.0024
318.15 K | 842.88 ± 4 | 1.48249 ± 0.0024
323.15 K | 838.42 ± 4 | 1.47968 ± 0.0024
333.15 K | 828.94 ± 4 | 1.47401 ± 0.0024

Cc1ccccc1 [toluene] + CCCCCCCCO
Details | mass density, [4] [kg/m3] | refractive index, [3]
293.15 K | 866.68 ± 4 | 1.49666 ± 0.0024
298.15 K | 861.74 ± 4 | 1.49386 ± 0.0024
303.15 K | 857.39 ± 4 | 1.49193 ± 0.0024
308.15 K | 851.69 ± 4 | 1.48821 ± 0.0024
313.15 K | 847.82 ± 4 | 1.48536 ± 0.0024
318.15 K | 842.88 ± 4 | 1.48249 ± 0.0024
323.15 K | 838.42 ± 4 | 1.47968 ± 0.0024
333.15 K | 828.94 ± 4 | 1.47401 ± 0.0024
